Like-named read-outs stand apart in the source and are kept apart here.
Key:
HIV-1(IIIB) = test: Anti-HIV activity assay, HIV-1-infected wild-type CEM/0 cell cultures; type: cell-based; conditions: Human immunodeficiency virus 1, IIIB, CCRF-CEM, read-out: EC50 CEM/0 HIV-1
Experimental: γ‐(AB,alkyl)‐d4TTP prodrugs 6 and the γ‐alkyl‐d4TTPs 7 were evaluated for their ability to inhibit the replication of HIV in HIV‐1‐ or HIV‐2‐infected wild‐type CEM/0 as well as mutant thymidine‐kinase‐deficient CEM cell cultures (CEM/TK^−). For comparison, two TriPPPro derivatives 5 were also included in this assay.
Anti-HIV activity assay: Inhibition of HIV-1(IIIB)- and HIV-2(ROD)-induced cytopathicity in wild-type CEM/0 and thymidine kinase-deficient CEM/TK- cell cultures was measured in microtiter 96-well plates containing ~3·105 CEM cells/mL infected with 100 CCID50 of HIV per milliliter and containing appropriate dilutions of the test compounds. After 4−5 days of incubation at 37 °C in a CO2-controlled humidified atmosphere, CEM giant (syncytium) cell formation was examined microscopically. […]
was defined as the compound concentration required to inhibit HIV-induced giant cell formation by 50%. […]
(§1) The result was visualized by fluorescence imaging. […]
as §1

[1] = Cytotoxicity: inhibition of CD4+ T-cell (CEM) proliferation; type: cell-based; conditions: human, CEM/0 cells (CD4+ T-cells), 50 % cytostatic concentration, mean±SD, n=2-3
[2] = Chemical hydrolysis in aqueous phosphate buffer (PBS, pH 7.3); type: physicochemical; conditions: for half-life at 0.92 mM: phosphate buffered saline (PBS), read-out: PBS pH 7.3 t 1/2 (converted); for half-life at 0.92 mM / PBS pH 7.3 t 1/2: aqueous 25 mM phosphate buffer, pH 7.3, 37 °C, removal of AB group, n.h. = no hydrolysis observed through cleavage of AB-mask
Experimental: γ‐(AB,alkyl)‐NTP prodrugs 6 and γ‐alkyl‐NTPs 7 were incubated in aqueous phosphate buffer (PBS, 25 mM, pH 7.3), or were exposed to pig liver esterase (PLE) in phosphate buffer (PBS) and to human CD4^+ T‐lymphocyte cell extracts to study their stability and the product distribution. The hydrolysis mixtures were analyzed by means of analytical rp‐18‐HPLC. The calculated half‐lives of prodrugs 6 (Table 1, t 1/2) reflect the removal of the bioreversible AB group to yield γ‐alkyl‐NTPs 7. Possible hydrolysis pathways and products are summarized in Scheme 4.
As hydrolysis products, a predominant formation of γ‐alkyl‐d4TTPs 7 and a very small amount of d4TDP […] was detected (approximately 3 %). After consumption of the starting material, no further increase of d4TDP concentration was observed. This supports the hypothesis that only the double‐γ‐esterified d4TTP prodrugs 6 were prone to a bond breakage between the γ‐ and β‐phosphate. […] In contrast to previous studies with TriPPPro‐NTPs 5 containing a second cleavable mask (first generation NTP prodrugs),[ ^23 , ^24 , ^25 ] no d4TTP was detected in these studies using 6 or 7. A side reaction occurred during the studies using compounds 7 that led to the formation of thymine by the cleavage of the glycosidic bond as reported before.[ ^19 , ^22 ]
ProLab 300 from Schott Co.. Thermomixer: Eppendorf Thermomixer 5436 and CellMedia Thermoschüttler basic were used. […]
Chemical hydrolysis of prodrugs of γ-(AB,alkyl) d4TTP 6 as well as the γ-alkyl-NTPs 7,15:
Stock solutions (50mM in DMSO-d6) of compounds 6,7 were prepared. After dilution of 11 µL stock solution with 100 µL milliQ water and 189 µL DMSO-d6 to 1.9mM hydrolysis solutions the reaction was started by addition of 300 µL phosphate buffer saline (PBS, 50mM, pH 7.3). The solution was incubated at 37 C in a thermomixer. An initial aliquot (25 µL) was taken directly and analyzed by analytical HPLC at 265-266 nm. Further aliquots were taken for monitoring the kinetic hydrolysis. The exponential decay curves (pseudo-first order) based on absolute integral values were calculated with commercially available software (OriginPro 9.0G) and yielded the half-lives t1/2 of the prodrugs via one determination. […]
(§2) The calculation of t1/2 was performed analogously to that for the chemical hydrolysis studies.
(§3) Preparation of cell extracts: Human CD4+ T-lymphocyte CEM cells were grown in RPMI-1640-based cell culture medium to a final density of ~3·10^6 cells/ml. Then, cells were centrifuged for 10 min at 1,250 rpm at 4 °C, washed twice with cold PBS, and the pellet was re-suspended at 10^8 cells/ml and sonicated (Hielscher Ultrasound Techn., 100% amplitude, 3·times for 10 sec) to destroy cell integrity. The resulting cell suspension was then centrifuged at 10,000 rpm to remove cell debris, and the supernatant divided in aliquots before being frozen at -80 C and used.
(§4) (1 picture or pasted object on this page, not shown here)

pig liver esterase (PLE) = test: Enzymatic hydrolysis with pig liver esterase (PLE); type: in vitro ADME; conditions: pH 7.3, 37 °C; for half-life at 0.45 mM: pig liver esterase (PLE) in PBS, pig liver esterase in PBS, read-out: t 1/2 with PLE (cleavage of acyloxybenzyl masking unit); for cleavage of the alkyl residue by esterase: PLE in PBS
Experimental: Next, the enzymatic stability of prodrugs γ‐(AB‐C4,alkyl‐C18)‐d4TTP 6 cz and γ‐(AB‐C15,alkyl‐C4)‐d4TTP 6 ew was examined by incubation with PLE, which is used as a model enzyme for studying the esterase activation of the prodrugs, in PBS, pH 7.3 at 37 °C. […] This proves our initial concept of introducing an enzyme (esterase)‐stable group to the γ‐phosphate unit.
ProLab 300 from Schott Co.. Thermomixer: Eppendorf Thermomixer 5436 and CellMedia Thermoschüttler basic were used.
Fluorescent Imager: ChemiDoc™ MP Imaging System (170-8280) from Bio-Rad Co. was used for primer extension study.
Electrophoresis: Thermo Fisher OwlTM S4S Aluminum-Backed Sequencer System. Power supply: Consort EV2230 Gel […]
Further aliquots were taken for monitoring the kinetic hydrolysis. The exponential decay curves (pseudo-first order) based on absolute integral values were calculated with commercially available software (OriginPro 9.0G) and yielded the half-lives t1/2 of the prodrugs via one determination.
Enzymatic hydrolysis of compounds 6,7 with pig liver esterase (PLE):
10 µL 50 mM DMSO stock solution of compounds 6,7 was diluted to 6.0 mM hydrolysis solution by addition of 31.7 µL DMSO and 41.7 µL ultrapure water. Then 83.3 µl of the 6.0 mM solution was diluted with 125 µL DMSO and 833 µl 50 mM PBS buffer (pH 7.3).
The reaction was started by addition of 62.5 µl of PLE in PBS buffer (3 mg/mL) and the mixture was incubated with 800 rpm at 37 °C in a thermomixer. At different times, aliquots (100 µl) were taken and the reaction was stopped by addition to […] MeOH. The mixture was kept for 5 min on ice followed by centrifugation for 5 min (13000 rpm). The mixture was filtered (Chromafil RC-20/15 MS, […]) and stored in liquid nitrogen. When testing, the samples were defrosted and injection volume with 80 µL was used for HPLC […]
as §2, §3, §4

[3] = wild-type CEM/0 cells, HIV-1, mean±SD, n=2-3

Row | Compound | EC50 (HIV-1(IIIB)) [nM] | CC50 [1] [nM] | half-life at 0.92 mM [2] [h] | half-life at 0.45 mM (pig liver esterase (PLE)) [h] | EC50 (HIV-1(IIIB); [3]) [nM] | PBS pH 7.3 t 1/2 [2] | cleavage of the alkyl residue by esterase (pig liver esterase (PLE)) | calculated half-life in PBS hydrolysis (decrease by thymine formation, cleavage of the glycosidic bond) ([2]; PBS pH 7.3)
1 | Cc1cn(C2C=CC(COP(=O)(O)OP(=O)(O)OP(=O)(O)O)O2)c(=O)[nH]c1=O (stereo not shown) [2 t, d4TTP, reference compound] | 1050 ± 350 | > 100000 |  |  |  |  |  | 
2 | CCCCCCCCCCCCCCCCCCOP(=O)(OCc1ccc(OC(=O)CCCC)cc1)OP(=O)(O)OP(=O)(O)OCC1C=CC(n2cc(C)c(=O)[nH]c2=O)O1 (stereo not shown) [6 cz, γ‐(AB‐C4,alkyl‐C18)‐d4TTP] |  | 13000 ± 1000 | 237 | 0.135 | 180 ± 90 |  |  | 
3 | CCCCCCCCCCCCCCCC(=O)Oc1ccc(COP(=O)(OCCCC)OP(=O)(O)OP(=O)(O)OCC2C=CC(n3cc(C)c(=O)[nH]c3=O)O2)cc1 (stereo not shown) [6 ew, γ‐(AB‐C15,alkyl‐C4)‐d4TTP] |  | 21000 ± 2000 | 198 | 0.425 | 330 ± 110 |  |  | 
4 | CCCCOP(=O)(O)OP(=O)(O)OP(=O)(O)OCC1C=CC(n2cc(C)c(=O)[nH]c2=O)O1 (stereo not shown) [7 w, γ‐C4‐d4TTP] | 950 ± 510 | > 100000 |  |  |  | n.h.^[c] | no cleavage of the alkyl residue | 
5 | CCCCCCCCCCCCCCCCCCOP(=O)(O)OP(=O)(O)OP(=O)(O)OCC1C=CC(n2cc(C)c(=O)[nH]c2=O)O1 (stereo not shown) [7 z, γ‐C18‐d4TTP] | 110 ± 42 | 86000 ± 3000 |  |  |  | n.h.^[c] | no cleavage of the alkyl residue | about 1500 h

Reference: paper PMC7756582, “Prodrugs of γ‐Alkyl‐Modified Nucleoside Triphosphates: Improved Inhibition of HIV Reverse Transcriptase” (Angewandte Chemie (International Ed. in English), 2020)
